Measured values as given in US10294202B2, “Pyrrolidinones as herbicides” (FMC Corporation, priority 2013, dated 2019).

Key:
Assay in all cases: Test C pre-/postemergence herbicide test
cocklebur = format: in vivo, Xanthium strumarium; conditions: Preemergence
Method in brief: (§1)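 Herbicidal effect was judged by eye 13 to 15 days after treatment in the greenhouse, using a 0–100 scale against controls. Chemicals in a non-phytotoxic solvent with surfactant were sprayed onto planted loam/sand soil or onto plants 2 to 18 cm tall in a peat-based growing medium.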

bermudagrass = format: in vivo, Cynodon dactylon; conditions: Preemergence; for Bermudagrass plant response rating: 31 g ai/ha
Method in brief: as §1

Russian thistle = format: in vivo, Salsola kali; conditions: Preemergence
From the text: (§2) Seeds of plant species selected from blackgrass (Alopecurus myosuroides), ryegrass, Italian (Italian ryegrass, Lolium multiflorum), wheat (winter wheat, Triticum aestivum), galium (catchweed bedstraw, Galium aparine), corn (Zea mays), crabgrass, large (large crabgrass, Digitaria sanguinalis), foxtail, giant (giant foxtail, Setaria faberii), johnsongrass (Sorghum halepense), lambsquarters (Chenopodium album), morningglory (Ipomoea coccinea), nutsedge, yellow (yellow nutsedge, Cyperus esculentus), pigweed (Amaranthus retroflexus), ragweed (common ragweed, Ambrosia elatior), soybean (Glycine max), barnyardgrass (Echinochloa crus-galli), oilseed rape (Brassica napus), waterhemp (common waterhemp, Amaranthus rudis), kochia (Kochia scoparia), oat, wild (wild oat, Avena fatua), surinam grass (Brachiaria decumbens), foxtail, green (green foxtail, Setaria viridis), goosegrass (Eleusine indica), bromegrass, downy (downy bromegrass, Bromus tectorum), nightshade (eastern black nightshade, Solanum ptycanthum), cocklebur (common cocklebur, Xanthium strumarium), cupgrass, woolly (woolly cupgrass, Eriochloa villosa), bermudagrass (Cynodon dactylon), sunflower, (common oilseed sunflower, Helianthus annuus), Russian thistle (Salsola kali) and velvetleaf (Abutilon theophrasti) were planted into a blend of loam soil and sand and treated preemergence with test chemicals formulated in a non-phytotoxic solvent mixture which included a surfactant. At the same time, plants selected from these crop and weed species and also barley (winter barley, Hordeum vulgare), […]), chickweed (common chickweed, Stellaria media), deadnettle (henbit deadnettle, Lamium amplexicaule), and canarygrass (littleseed canarygrass, Phalaris minor) were planted in pots containing Redi-Earth® planting medium (Scotts Company, 14111 Scottslawn Road, Marysville, Ohio 43041) comprising spaghnum peat moss, vermiculite, wetting agent and starter nutrients and treated with postemergence applications of test chemicals formulated in the same manner. Plants ranged in height from 2 to 18 cm (1- to 4-leaf stage) for postemergence treatments. Treated plants and controls were maintained in a greenhouse for 13 to 15 days, after which time all species were compared to controls and visually evaluated. Plant response ratings, summarized in Table C, are based on a scale of 0 to 100 where 0 is no effect and 100 is complete control. A dash (-) response means no test result.

sunflower = format: in vivo, Helianthus annuus; conditions: Preemergence
From the text: as §2

foxtail, green = format: in vivo, Setaria viridis; conditions: Preemergence; for Foxtail, Green plant response rating: 31 g ai/ha
From the text: as §2

nightshade = format: in vivo, Solanum ptycanthum; conditions: Preemergence
From the text: as §2

cupgrass, woolly = format: in vivo, Eriochloa villosa; conditions: Preemergence; for Cupgrass, Woolly plant response rating: 31 g ai/ha
From the text: as §2

bromegrass, downy = format: in vivo, Bromus tectorum; conditions: Preemergence; for Bromegrass, Downy plant response rating: 31 g ai/ha
Method in brief: as §1

kochia = format: in vivo, Kochia scoparia; conditions: Preemergence
Method in brief: as §1

goosegrass = format: in vivo, Eleusine indica; conditions: Preemergence; for Goosegrass plant response rating: 31 g ai/ha
From the text: as §2

surinam grass = format: in vivo, Brachiaria decumbens; conditions: Preemergence
From the text: as §2

[1] = scale 0 to 100 (0 no effect, 100 complete control)
[2] = 125 g ai/ha, scale 0 to 100 (0 no effect, 100 complete control)
[3] = 250 g ai/ha, scale 0 to 100 (0 no effect, 100 complete control)
[4] = 31 g ai/ha, scale 0 to 100, 0 is no effect and 100 is complete control
[5] = scale 0 to 100, 0 is no effect and 100 is complete control

| Compound | Plant response rating, Bermudagrass (bermudagrass; 62 g ai/ha, scale 0 to 100) | Plant response rating, Bermudagrass (bermudagrass; [2]) | Plant response rating, Bermudagrass (bermudagrass; [3]) | Plant response rating Sunflower (sunflower; 62 g ai/ha, scale 0 to 100) | Plant response rating Sunflower (sunflower; [2]) | Plant response rating, Foxtail, Green (foxtail, green; 62 g ai/ha, scale 0 to 100) | Plant response rating, Foxtail, Green (foxtail, green; [2]) | Plant response rating, Foxtail, Green (foxtail, green; [3]) | Plant response rating, Nightshade (nightshade; [2]) | Plant response rating, Cupgrass, Woolly (cupgrass, woolly; 62 g ai/ha, scale 0 to 100) | Plant response rating, Cupgrass, Woolly (cupgrass, woolly; [2]) | Plant response rating, Cupgrass, Woolly (cupgrass, woolly; [3]) | Plant response rating, Bromegrass, Downy (bromegrass, downy; 62 g ai/ha, scale 0 to 100) | Plant response rating, Bromegrass, Downy (bromegrass, downy; [2]) | Plant response rating, Bromegrass, Downy (bromegrass, downy; [3]) | Plant response rating, Kochia (kochia; 62 g ai/ha, scale 0 to 100) | Plant response rating, Kochia (kochia; [2]) | Plant response rating, Goosegrass (goosegrass; 62 g ai/ha, scale 0 to 100) | Plant response rating, Goosegrass (goosegrass; [2]) | Plant response rating, Surinam Grass (surinam grass; 62 g ai/ha, scale 0 to 100) | also measured |
| --- | --- | --- | --- | --- | --- | --- | --- | --- | --- | --- | --- | --- | --- | --- | --- | --- | --- | --- | --- | --- | --- |
| O=C1NCC(c2ccc(F)c(Cl)c2)C1C(=O)Nc1cccc(F)c1F (stereo not shown) [Compound 59] | 20 | 40 | 50 | 5 | 15 | 90 | 90 | 98 | 25 | 70 | 80 | 80 | 0 | 0 | 20 | 0 | 10 | 25 | 35 | 35 | Plant response rating, Cocklebur (cocklebur; 62 g ai/ha, scale 0 to 100): 0; Bermudagrass plant response rating (bermudagrass; [1]): 20; Plant response rating, Russian Thistle (Russian thistle; 62 g ai/ha, scale 0 to 100): 0; Plant response rating, Russian Thistle (Russian thistle; [2]): 0; Foxtail, Green plant response rating (foxtail, green; [1]): 85; Cupgrass, Woolly plant response rating (cupgrass, woolly; [1]): 40; Bromegrass, Downy plant response rating (bromegrass, downy; [1]): 0; Goosegrass plant response rating (goosegrass; [1]): 15; Plant response rating, Surinam Grass (surinam grass; [2]): 60 |
| O=C1NCC(c2cccc(OC(F)(F)F)c2)C1C(=O)Nc1cccc(F)c1F (stereo not shown) [Compound 68] | 50 | 85 | 85 | 0 | 10 | 90 | 95 | 95 | 55 | 75 | 85 | 90 | 0 | 0 | 0 | 0 | 0 | 75 | 80 | 75 | Cocklebur plant response rating (cocklebur; [4]): 15; Bermudagrass plant response rating (bermudagrass; [5]): 30; Sunflower plant response rating (sunflower; [4]): 0; Foxtail, Green plant response rating (foxtail, green; [5]): 90; Nightshade plant response rating (nightshade; [4]): 10; Plant response rating, Nightshade (nightshade; 62 g ai/ha, scale 0 to 100): 50; Cupgrass, Woolly plant response rating (cupgrass, woolly; [5]): 75; Bromegrass, Downy plant response rating (bromegrass, downy; [5]): 0; Kochia plant response rating (kochia; [4]): 0; Goosegrass plant response rating (goosegrass; [5]): 55; Surinam Grass plant response rating (surinam grass; [4]): 40; Plant response rating, Surinam Grass (surinam grass; [2]): 75 |
